Assay results published in ChEMBL document CHEMBL5113542, “Highly Potent and Oral Macrocyclic Peptides as a HIV-1 Protease Inhibitor: mRNA Display-Derived Hit-to-Lead Optimization” (ACS Med Chem Lett, 2022).
Starred links: 1 amine or outer side, 2 acyl side, 3 side chain; linkers in the order of their positions; H or OH if unused. Positions of bridges follow the written chain, without caps; N, C: chain ends. Non-standard residues stand in square brackets, D forms with d. Residues, ends and D or L forms follow the SMILES beside them. X3 = O=C([C@H](CCC1=CCC(F)(F)CC1)N[*:1])[*:2]; Trp(1-Me) = Cn1cc(C[C@H](N)C(=O)O)c2ccccc21; 1Nal = N[C@@H](Cc1cccc2ccccc12)C(=O)O; NHCH2CH2SCH2CO = O=C(CSCCN[*:1])[*:2]; NMeF = CN[C@@H](Cc1ccccc1)C(=O)O; hCha = N[C@@H](CCC1CCCCC1)C(=O)O; hPhe = N[C@@H](CCc1ccccc1)C(=O)O; X1 = CC(C)(CN[*:1])SCC(=O)[*:2]; X2 = CC(C)(SCCN[*:1])C(=O)[*:2]; Pen = CC(C)(S)[C@H](N)C(=O)O; αMeV = CC(C)[C@](C)(N)C(=O)O; αMeP = C[C@@]1(C(=O)O)CCCN1

Experiments:
[1] = target: Human immunodeficiency virus type 1 protease (Human immunodeficiency virus 1, UniProt Q72874); experiment: Inhibition of HIV-1 protease using EDANS-RESGIFLETSKR-DABCYL as substrate preincubated for 15 mins followed by substrate addition and measured after 60 mins by fluorescence based assay
[2] = test system: Human immunodeficiency virus 1; experiment: Anti-HIV activity against HIV-1 3B strain infected in human MT4 cells assessed as inhibition of virus-induced cell death preincubated with compound for 1 hrs followed by viral infection and measured after 4 days by MTT assay; type: functional, organism-based; details: Human immunodeficiency virus 1, 3B
[3] = Metabolic stability in human liver microsomes incubated for 30 mins in the presence of NADPH by LC-MS/MS analysis; type: ADME, Microsome; details: read-out: Stability
[4] = Metabolic stability in rat liver microsomes incubated for 30 mins in the presence of NADPH by LC-MS/MS analysis; type: ADME, Microsome; details: read-out: Stability
[5] = Volume of distribution at steady state in Sprague-Dawley rat at 2 umol/kg, po or 1 umol/kg, iv administered as single dose by LC-MS/MS analysis; type: ADME, organism-based; details: in vivo, dose 1 µmol/kg
[6] = Half-life in Sprague-Dawley rat at 2 umol/kg, po or 1 umol/kg, iv administered as single dose by LC-MS/MS analysis; type: ADME, organism-based; details: in vivo, dose 2 µmol/kg
[7] = Unbound fraction in rat serum measured after 24 hrs by equilibrium dialysis based LC-MS/MS analysis; type: ADME, cell-free
[8] = Metabolic stability in human liver S9 fraction incubated for 60 mins by LC-MS/MS analysis; type: ADME, subcellular; details: read-out: Stability
[9] = Oral bioavailability in Sprague-Dawley rat at 2 umol/kg administered as single dose by LC-MS/MS analysis; type: ADME, organism-based; details: in vivo, at 2 µmol/kg
[10] = Solubility of the compound at pH 6.8 incubated for 1 hrs in the presence of taurocholic acid by UHPLC/MS analysis; type: physicochemical; details: medium containing taurocholic acid

Row | Structure (SMILES) | IC50 [1] | EC50 [2] | remaining at 0.5 h [3] | remaining at 0.5 h [4] | Vdss [5] | half-life [6] | fraction unbound at 24 h [7] | remaining at 1 h [8] | bioavailability [9] | solubility at 1 h [10]
1 | CC(C)C[C@@H]1NC(=O)[C@H](C(C)C)NC(=O)[C@]2(C)CCCN2C(=O)[C@H](C(C)C)NC(=O)[C@H](Cc2ccccc2)NC(=O)CSCCNC(=O)[C@H](C)NC(=O)[C@H](Cc2ccccc2)N(C)C(=O)[C@H](CC(C)C)NC(=O)[C@H](CCC2CCCCC2)NC1=O (cyclo(A[NHCH2CH2SCH2CO]FV[αMeP]VL[hCha]L[NMeF])) | 0.28 nM | 24 nM | 8% | 53% | 0.8 L/kg | 1.6 h | 0.001 | – | – | –
2 | CC(C)C[C@@H]1NC(=O)[C@H](C(C)C)NC(=O)[C@]2(C)CCCN2C(=O)[C@H](C(C)C)NC(=O)[C@H](Cc2ccccc2)NC(=O)CSCCNC(=O)[C@H](Cc2ccccc2)N(C)C(=O)[C@H](CC(C)C)NC(=O)[C@H](Cc2cccc3ccccc23)NC1=O (cyclo([1Nal]L[NMeF][NHCH2CH2SCH2CO]FV[αMeP]VL)) | 0.78 nM | 30 nM | – | – | – | – | – | 86% | – | –
3 | CC(C)C[C@@H]1NC(=O)[C@H](C(C)C)NC(=O)[C@]2(C)CCCN2C(=O)[C@H](C(C)C)NC(=O)[C@H](Cc2ccccc2)NC(=O)C(C)(C)SCCNC(=O)[C@H](C)NC(=O)[C@H](Cc2ccccc2)N(C)C(=O)[C@H](CC(C)C)NC(=O)[C@H](CCC2CCCCC2)NC1=O (cyclo(A[X2]FV[αMeP]VL[hCha]L[NMeF])) | 15.3 nM | 150 nM | 28% | 46% | – | – | – | – | – | –
4 | CC(C)C[C@@H]1NC(=O)[C@](C)(C(C)C)NC(=O)[C@@H]2CCCN2C(=O)[C@H](C(C)C)NC(=O)[C@H](Cc2ccccc2)NC(=O)CSCCNC(=O)[C@H](Cc2ccccc2)N(C)C(=O)[C@H](CC(C)C)NC(=O)[C@H](Cc2cccc3ccccc23)NC1=O (cyclo([1Nal]L[NMeF][NHCH2CH2SCH2CO]FVP[αMeV]L)) | 0.44 nM | 120 nM | – | – | – | – | – | 69% | – | –
5 | CC(C)C[C@@H]1NC(=O)[C@H](C(C)C)NC(=O)[C@]2(C)CCCN2C(=O)[C@H](C(C)C)NC(=O)[C@H](Cc2ccccc2)NC(=O)CSCCNC(=O)[C@H](CC(C)C)NC(=O)[C@H](Cc2ccccc2)N(C)C(=O)[C@H](CC(C)C)NC(=O)[C@H](CCC2CCCCC2)NC1=O (cyclo(FV[αMeP]VL[hCha]L[NMeF]L[NHCH2CH2SCH2CO])) | 2.3 nM | 62 nM | – | – | – | – | – | – | – | –
6 | CC(C)C[C@@H]1NC(=O)[C@H](C(C)C)NC(=O)[C@]2(C)CCCN2C(=O)[C@H](C(C)C)NC(=O)[C@H](Cc2ccccc2)NC(=O)CSCCNC(=O)[C@H](Cc2ccccc2)NC(=O)[C@H](Cc2ccccc2)N(C)C(=O)[C@H](CC(C)C)NC(=O)[C@H](CCC2CCCCC2)NC1=O (cyclo(FV[αMeP]VL[hCha]L[NMeF]F[NHCH2CH2SCH2CO])) | 2.32 nM | 56 nM | – | – | – | – | – | – | – | –
7 | CC(C)C[C@@H]1NC(=O)[C@H](C(C)C)NC(=O)[C@@H]2CCCN2C(=O)[C@H](C(C)C)NC(=O)[C@H](Cc2ccccc2)NC(=O)CSCCNC(=O)[C@H](Cc2ccccc2)N(C)C(=O)[C@H](CC(C)C)NC(=O)[C@H](Cc2cccc3ccccc23)NC1=O (cyclo([1Nal]L[NMeF][NHCH2CH2SCH2CO]FVPVL)) | 0.68 nM | 320 nM | – | – | – | – | – | 46% | – | –
8 | CC(C)C[C@@H]1NC(=O)[C@H](C(C)C)NC(=O)[C@@H]2CCCN2C(=O)[C@H](C(C)C)NC(=O)[C@H](Cc2ccccc2)NC(=O)CSCCNC(=O)[C@H](Cc2ccccc2)N(C)C(=O)[C@H](CC(C)C)NC(=O)[C@H](Cc2cn(C)c3ccccc23)NC1=O (cyclo(FVPVL[Trp(1-Me)]L[NMeF][NHCH2CH2SCH2CO])) | 7.86 nM | 1500 nM | – | – | – | – | – | – | – | –
9 | COC(=O)[C@H]1NC(=O)[C@H](C)NC(=O)[C@H](Cc2ccccc2)N(C)C(=O)[C@H](CC(C)C)NC(=O)[C@H](CCC2CCCCC2)NC(=O)[C@H](CC(C)C)NC(=O)[C@H](C(C)C)NC(=O)[C@]2(C)CCCN2C(=O)[C@H](C(C)C)NC(=O)[C@H](Cc2ccccc2)NC(=O)CSC1(C)C ({CH2CO}-FV[αMeP]VL[hCha]L[NMeF]A[Pen]-OMe; thioether N-10) | 3.52 nM | 37 nM | 23% | 63% | 1.9 L/kg | 3.9 h | 0.001 | – | 3.3% | 10 µM
10 | CC(C)C[C@@H]1NC(=O)[C@H](C(C)C)NC(=O)[C@]2(C)CCCN2C(=O)[C@H](C(C)C)NC(=O)[C@H](Cc2ccccc2)NC(=O)CSCCNC(=O)[C@H](Cc2ccccc2)N(C)C(=O)[C@H](CC(C)C)NC(=O)[C@H](CCC2CCCCC2)NC1=O (cyclo(FV[αMeP]VL[hCha]L[NMeF][NHCH2CH2SCH2CO])) | 0.29 nM | 12 nM | – | – | – | – | – | – | – | –
11 | CC(C)C[C@@H]1NC(=O)[C@H](C(C)C)NC(=O)[C@]2(C)CCCN2C(=O)[C@H](C(C)C)NC(=O)[C@H](Cc2ccccc2)NC(=O)CSCCNC(=O)CNC(=O)[C@H](Cc2ccccc2)N(C)C(=O)[C@H](CC(C)C)NC(=O)[C@H](CCC2CCCCC2)NC1=O (cyclo(FV[αMeP]VL[hCha]L[NMeF]G[NHCH2CH2SCH2CO])) | 0.37 nM | 29 nM | – | – | – | – | – | 85% | – | –
12 | CC(C)C[C@@H]1NC(=O)[C@H](C(C)C)NC(=O)[C@]2(C)CCCN2C(=O)[C@H](C(C)C)NC(=O)[C@H](Cc2ccccc2)NC(=O)CSCCNC(=O)[C@H](Cc2ccccc2)N(C)C(=O)[C@H](CC(C)C)NC(=O)[C@H](CCc2ccccc2)NC1=O (cyclo(FV[αMeP]VL[hPhe]L[NMeF][NHCH2CH2SCH2CO])) | 0.45 nM | 28 nM | – | – | – | – | – | – | – | –
13 | CC(C)C[C@@H]1NC(=O)[C@H](C(C)C)NC(=O)[C@@H]2CCCN2C(=O)[C@H](C(C)C)NC(=O)[C@H](Cc2ccccc2)NC(=O)CSCCNC(=O)CNC(=O)[C@H](Cc2ccccc2)N(C)C(=O)[C@H](CC(C)C)NC(=O)[C@H](Cc2c[nH]c3ccccc23)NC1=O (cyclo(FVPVLWL[NMeF]G[NHCH2CH2SCH2CO])) | 0.99 nM | 960 nM | 3% | 29% | 0.1 L/kg | 0.7 h | 0.011 | 23% | – | 26 µM
14 | CC(C)C[C@@H]1NC(=O)[C@H](C(C)C)NC(=O)[C@]2(C)CCCN2C(=O)[C@H](C(C)C)NC(=O)[C@H](Cc2ccccc2)NC(=O)CSCCNC(=O)[C@H](Cc2ccccc2)N(C)C(=O)[C@H](CC(C)C)NC(=O)[C@H](CCC2=CCC(F)(F)CC2)NC1=O (cyclo(FV[αMeP]VL[X3]L[NMeF][NHCH2CH2SCH2CO])) | 0.21 nM | 10 nM | – | – | – | – | – | – | – | –
15 | CC(C)C[C@@H]1NC(=O)[C@H](C(C)C)NC(=O)[C@@H]2CCCN2C(=O)[C@H](C(C)C)NC(=O)[C@H](Cc2ccccc2)NC(=O)CSCCNC(=O)[C@H](Cc2ccccc2)N(C)C(=O)[C@H](CC(C)C)NC(=O)[C@H](Cc2c[nH]c3ccccc23)NC1=O (cyclo(FVPVLWL[NMeF][NHCH2CH2SCH2CO])) | 8.05 nM | 610 nM | – | – | – | – | – | – | – | –
16 | CC(C)C[C@@H]1NC(=O)[C@H](C(C)C)NC(=O)[C@]2(C)CCCN2C(=O)[C@H](C(C)C)NC(=O)[C@H](Cc2ccccc2)NC(=O)CSC(C)(C)CNC(=O)[C@H](C)NC(=O)[C@H](Cc2ccccc2)N(C)C(=O)[C@H](CC(C)C)NC(=O)[C@H](CCC2CCCCC2)NC1=O (cyclo(A[X1]FV[αMeP]VL[hCha]L[NMeF])) | 0.62 nM | 11 nM | 20% | 60% | 0.7 L/kg | 2 h | 0.001 | – | 0.2% | –
